Test results published in BindingDB's records for doi:10.1016/S1074-5521(02)00310-1 (Tohoku University, 2003).

Target: T1, Peptidyl-prolyl cis-trans isomerase ESS1 (Saccharomyces cerevisiae (strain ATCC 204508 / S288c), UniProt P22696)
T1 sequence (P22696 whole entry): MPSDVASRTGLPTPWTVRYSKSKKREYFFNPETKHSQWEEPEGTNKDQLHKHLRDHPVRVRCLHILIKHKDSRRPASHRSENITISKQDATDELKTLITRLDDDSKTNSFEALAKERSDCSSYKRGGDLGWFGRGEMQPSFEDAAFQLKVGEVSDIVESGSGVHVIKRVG
Experiment: Pin1 Inhibition Assay
Conditions: pH 7; 0 °C
Method: Assay was carried out measuring the MCA fluorescence using Suc-Ala-Glu-Pro-Phe-MCA as substrate purchased from Japan Peptide Institute Co.

| SMILES | IC50 |
| --- | --- |
| COc1ccc(C2/C=C\CN(C(=O)c3ccccc3)CC(=O)N2Cc2ccc(F)cc2)cc1 (stereo not drawn) | > 10 µM |
| COc1ccc(C2CC(O)(c3ccccc3)Oc3c(C)ccc(C)c32)cc1 (stereo not drawn) [4-(4-methoxyphenyl)-5,8-dimethyl-2-phenyl-chroman-2-ol] | 5 µM |
| O=C(O)CN1C(=O)c2cccc3cccc(c23)C1=O [(1,3-dioxo-1H-benzo[de]isoquinolin-2(3H)-yl)acetic acid] | > 10 µM |
| CC(C)C[C@H](NC(=O)c1[nH]cnc1C(=O)N1CCc2ccccc2C1)C(=O)OCc1ccccc1 [(2S)-2-[[[5-[3,4-dihydro-1H-isoquinolin-2-yl(oxo)methyl]-1H-imidazol-4-yl]-oxomethyl]amino]-4-methylpentanoic acid (phenylmethyl) ester] | > 1.5 µM |
| COc1ccc(Br)cc1[C@H]1[C@@H]2C=CCC[C@@]2(C)C(=O)N1Cc1ccccc1 [(3R,3aR,7aR)-2-benzyl-3-(5-bromo-2-methoxy-phenyl)-7a-methyl-3,3a,6,7-tetrahydroisoindol-1-one] | 5 µM |
| C[C@@]12CCC=C[C@H]1[C@H](c1ccc3ccccc3c1Br)N(Cc1ccccc1)C2=O [(3R,3aR,7aR)-3-(1-bromanylnaphthalen-2-yl)-7a-methyl-2-(phenylmethyl)-3,3a,6,7-tetrahydroisoindol-1-one] | 1.5 µM |
| Cc1ccc(-c2cc([C@H]3[C@@H]4C=CCC[C@@]4(C)C(=O)N3Cc3ccccc3)ccc2F)cc1 [(3R,3aR,7aR)-3-[4-fluoro-3-(4-methylphenyl)phenyl]-7a-methyl-2-(phenylmethyl)-3,3a,6,7-tetrahydroisoindol-1-one] | 5 µM |
| Cc1cccc(NC(=O)c2[nH]cnc2C(=O)N[C@@H](CCCCNC(=O)OC(C)(C)C)C(=O)OC(C)(C)C)c1 [ILP-IV-14] | > 10 µM |
| COc1ccccc1-c1cc(=O)c2c(O)ccc([N+](=O)[O-])c2o1 [MLS000518626] | > 10 µM |

More lines, now with the values ahead:

| IC50 | SMILES |
| --- | --- |
| 2 µM | CC[C@@H]1CC=C[C@H]2[C@H]1C(=O)N(Cc1ccccc1)[C@H]2c1ccc(OC)c(Cl)c1 [(3R,3aS,7R,7aS)-3-(3-chloranyl-4-methoxy-phenyl)-7-ethyl-2-(phenylmethyl)-3a,6,7,7a-tetrahydro-3H-isoindol-1-one] |
| > 10 µM | CC(C)C[C@H](NC(=O)c1[nH]cnc1C(=O)N[C@@H](C)C(=O)OC(C)(C)C)C(=O)OCc1ccccc1 [(phenylmethyl) (2S)-4-methyl-2-[[4-[[(2S)-1-[(2-methylpropan-2-yl)oxy]-1-oxidanylidene-propan-2-yl]carbamoyl]-1H-imidazol-5-yl]carbonylamino]pentanoate] |
| 2.5 µM | CCOC(=O)c1ccc(NC(=O)c2[nH]cnc2C(=O)N[C@@H](CCCCNC(=O)OC(C)(C)C)C(=O)OC(C)(C)C)cc1 [MLS000849609] |
| > 10 µM | CCOC(=O)c1ccc(NC(=O)c2[nH]cnc2C(=O)N[C@@H](Cc2ccccc2)C(=O)OC(C)(C)C)cc1 [ethyl 4-[[5-[[(2S)-1-[(2-methylpropan-2-yl)oxy]-1-oxidanylidene-3-phenyl-propan-2-yl]carbamoyl]-1H-imidazol-4-yl]carbonylamino]benzoate] |
